According to ChEMBL document CHEMBL3808294, “Design, synthesis and anti-HIV activity of novel quinoxaline derivatives” (Eur J Med Chem, 2016):
In brackets after ≈: the same amount, converted by molar mass.

Legend:
[1] = system: Human immunodeficiency virus 1; assay: Antiviral activity against HIV1 3B infected in human MT4 cells assessed as protection against virus-induced cytopathogenic effect after 5 days by MTT assay; assay type: functional, organism-based; conditions: for IC50: Human immunodeficiency virus 1, 3B, MT4, 120 h
[2] = Cytotoxicity against human MT4 cells […] assessed as cell growth inhibition after 5 days by MTT assay; assay type: cell-based
Vero = assay: Cytotoxicity against African green monkey Vero cells assessed as cell growth inhibition after 24 hrs by MTT assay; assay type: cell-based; conditions: Chlorocebus sabaeus

Row | Compound | %max [1] [%] | IC50 [1] [µg/mL] | CC50 at 120 h [2] [µg/mL] | IC50 (Vero) [µg/mL]
1 | Fc1ccc(-c2nc3cc(F)c(Cl)cc3nc2-c2ccc(F)cc2)cc1 | 3 | > 15.4 | 15.4 (≈ 41.7 µM) | > 100
2 | Nc1nc2cc(F)c(Cl)cc2nc1N | 9 | > 38.4 | 38.5 (≈ 181 µM) | > 100
3 | CC(=O)O[C@H]1C(=O)[C@@]2(C)[C@H]([C@H](OC(=O)c3ccccc3)[C@]3(O)C[C@H](OC(=O)[C@H](O)[C@@H](NC(=O)c4ccccc4)c4ccccc4)C(C)=C1C3(C)C)[C@]1(OC(C)=O)CO[C@@H]1C[C@@H]2O [PACLITAXEL] | – | – | – | > 100
4 | O=c1[nH]cnc2c1ncn2[C@H]1CC[C@@H](CO)O1 [DIDANOSINE] | – | 17.9 (≈ 76 µM) | – | –
5 | Fc1cc2nc(-c3ccccc3)c(-c3ccccc3)nc2cc1Cl | 3 | > 11.8 | 11.8 (≈ 35.2 µM) | > 100
6 | Cc1cn([C@H]2C[C@H](N=[N+]=[N-])[C@@H](CO)O2)c(=O)[nH]c1=O [ZIDOVUDINE] | – | 0.002 (≈ 0.00748 µM) | 2 (≈ 7.48 µM) | –
7 | Cc1ccc(-c2nc3cc(F)c(Cl)cc3nc2-c2ccc(C)cc2)cc1 | 4 | > 27.8 | 27.8 (≈ 76.6 µM) | > 100
8 | Cc1ccnc2c1NC(=O)c1cccnc1N2C1CC1 [NEVIRAPINE] | – | 0.075 (≈ 0.282 µM) | – | > 100
9 | COc1ccc(-c2nc3cc(F)c(Cl)cc3nc2-c2ccc(OC)cc2)cc1 | 1 | > 30.5 | 30.6 (≈ 77.4 µM) | > 100
10 | Nc1ccn([C@@H]2CS[C@H](CO)O2)c(=O)n1 [LAMIVUDINE] | – | 0.58 (≈ 2.53 µM) | 20 (≈ 87.2 µM) | –
11 | Cc1nc2cc(F)c(Cl)cc2nc1C | 5 | > 49.7 | 49.7 (≈ 236 µM) | > 100
12 | Fc1cc2nccnc2cc1Cl | 3 | > 91.1 | 91.2 (≈ 499 µM) | 13.7 (≈ 75 µM)
